Active and inactive are the calls of the source.
Columns and labels:
[1] = A Cell Based Secondary Assay To Explore Cytotoxicity of Compounds that Sensitize Mycobacterium Tuberculosis to Beta-Lactam Antibiotics.; assay type: functional
14-3-3 protein gamma = 14-3-3 protein gamma (Homo sapiens, UniProt P61981); assay: modulators of 14-3-3 gamma client binding – dose response (AID 711); assay type: functional
[2] = target: T1, Probable nicotinate-nucleotide adenylyltransferase (Staphylococcus aureus (strain N315), UniProt P65502); assay type: functional, Staphylococcus aureus subsp. aureus N315; conditions: read-out: IC50_Mean;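 on IC50 Mean: confirmatory dose-response retesting of NadD inhibitor hits first found in an ultra-high-throughput screen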
[3] = target: T1, Probable nicotinate-nucleotide adenylyltransferase; assay type: functional, Staphylococcus aureus subsp. aureus N315
[4] = target: Induced myeloid leukemia cell differentiation protein Mcl-1 (Homo sapiens, UniProt Q07820); assay type: functional
Genome polyprotein = Genome polyprotein (Hepatitis C virus, UniProt Q2Q167); assay: HCV core protein dimerization inhibitors, dose response, biochemical, TR-FRET (AID 2159); parameters: species or system Hepacivirus hominis;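 further: blocks dimerization of HCV core protein measured by TR-FRET between tagged core106 pairs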
NS3 = NS3 (Hepatitis C virus, UniProt A3EZJ3); assay: PubChem AID 2173; parameters: species or system Hepacivirus hominis
[5] = target: Transitional endoplasmic reticulum ATPase (Homo sapiens, UniProt P55072, C522A); assay: C522A mutant p97 ATPase inhibitors, dose response, counter-screen for p97 inhibitor project, biochemical, luminescence (AID 1544)
[6] = HEp-2 cell cytotoxicity, dose response, cytotoxicity control for RSV inhibitor project, HTS (AID 2410); assay type: functional; conditions: human respiratory syncytial virus
[7] = target: Transitional endoplasmic reticulum ATPase (Homo sapiens, UniProt P55072); assay: p97 ATPase inhibitors, dose response, biochemical (AID 1534)
[8] = target: Peroxisome proliferator-activated receptor gamma/Nuclear receptor coactivator 2 (Homo sapiens, UniProt P37231); assay type: functional;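 further: agonist potency for raising coactivator recruitment to the receptor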
[9] = target: Peroxisome proliferator-activated receptor gamma/Nuclear receptor coactivator 1 (Homo sapiens, UniProt P37231); assay type: functional;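 further: agonist potency as compounds enhance coactivator SRC-1 recruitment to PPARgamma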
[10] = target: T2, Heat shock factor protein 1 (Mus musculus, UniProt P38532); assay: inhibition of MG132-induced HSE-luciferase signal, confirmation, cell-based, NIH3T3, luminescence, dose retest (AID 2382); assay type: functional;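 further: NIH3T3 fibroblasts with HSF1-driven luciferase reporter stressed by proteasome inhibitor MG132; luminescence from HSF1-driven luciferase expression after 8 hours of MG132 stress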
T2 sequence (P38532 whole entry): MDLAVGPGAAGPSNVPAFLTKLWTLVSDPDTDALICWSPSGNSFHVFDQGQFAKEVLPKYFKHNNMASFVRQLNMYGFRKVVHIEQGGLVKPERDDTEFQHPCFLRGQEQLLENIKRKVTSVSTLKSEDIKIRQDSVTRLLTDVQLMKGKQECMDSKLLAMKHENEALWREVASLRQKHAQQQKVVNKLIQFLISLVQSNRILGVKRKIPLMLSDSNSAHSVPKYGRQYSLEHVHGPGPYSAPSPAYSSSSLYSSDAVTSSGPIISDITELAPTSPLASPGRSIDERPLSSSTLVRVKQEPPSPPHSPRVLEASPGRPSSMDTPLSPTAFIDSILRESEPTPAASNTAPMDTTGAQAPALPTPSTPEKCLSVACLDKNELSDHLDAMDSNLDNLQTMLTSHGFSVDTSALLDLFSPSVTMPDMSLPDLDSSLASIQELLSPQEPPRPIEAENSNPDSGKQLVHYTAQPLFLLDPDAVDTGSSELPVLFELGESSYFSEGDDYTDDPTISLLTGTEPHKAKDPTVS

[11] = target: Peroxisome proliferator-activated receptor gamma/Nuclear receptor coactivator 3 (Homo sapiens, UniProt P37231); assay type: functional;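 further: agonist potency for raising coactivator recruitment to the receptor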
[12] = target: T3, Mannose-6-phosphate isomerase (Homo sapiens, UniProt P34949); assay: human PMI inhibitors, high substrate, primary screen, biochemical, fluorescence intensity, high mannose 6-phosphate (AID 1220)
T3 sequence (P34949 whole entry): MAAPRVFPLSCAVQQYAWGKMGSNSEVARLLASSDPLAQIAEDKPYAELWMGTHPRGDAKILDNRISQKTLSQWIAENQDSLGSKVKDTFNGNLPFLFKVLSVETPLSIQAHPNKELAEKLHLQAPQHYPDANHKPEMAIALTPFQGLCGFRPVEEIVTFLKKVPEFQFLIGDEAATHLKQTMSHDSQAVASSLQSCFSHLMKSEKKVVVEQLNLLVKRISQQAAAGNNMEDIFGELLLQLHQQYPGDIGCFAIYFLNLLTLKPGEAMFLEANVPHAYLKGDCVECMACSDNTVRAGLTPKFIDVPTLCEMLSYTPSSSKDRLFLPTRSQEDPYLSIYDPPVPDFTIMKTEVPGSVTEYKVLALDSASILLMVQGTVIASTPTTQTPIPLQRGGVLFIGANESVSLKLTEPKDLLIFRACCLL

Vero = Vero cell cytotoxicity, cytotoxicity control for flavivirus capping enzyme inhibitors (AID 588742); assay type: functional; conditions: Chlorocebus sabaeus
Nonstructural protein 1 = Nonstructural protein 1 (Influenza A virus, UniProt Q194T2); assay type: functional, Influenza A virus (A/California/07/2009(H1N1))
[13] = cytotoxicity toward NIH3T3 fibroblasts, dose response, counter-screen, cell-based, ATP luminescence, mouse fibroblasts (AID 2010); assay type: functional;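 further: cells exposed to compound for about 90 hours before reading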
[14] = inhibitors of intracellular T. cruzi replication, confirmation, NIH3T3 host cells, beta-gal luminescence (AID 2044); assay type: functional, cell-based;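 further: intracellular parasites grown in NIH/3T3 mouse fibroblasts as host cells; luminescent beta-galactosidase reporter signal from transgenic T. cruzi replicating inside host cells; inhibitors lower the luminescence signal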
[15] = target: T4, Alkaline phosphatase, tissue-nonspecific isozyme (Homo sapiens, UniProt P05186)
T4 sequence (P05186 whole entry): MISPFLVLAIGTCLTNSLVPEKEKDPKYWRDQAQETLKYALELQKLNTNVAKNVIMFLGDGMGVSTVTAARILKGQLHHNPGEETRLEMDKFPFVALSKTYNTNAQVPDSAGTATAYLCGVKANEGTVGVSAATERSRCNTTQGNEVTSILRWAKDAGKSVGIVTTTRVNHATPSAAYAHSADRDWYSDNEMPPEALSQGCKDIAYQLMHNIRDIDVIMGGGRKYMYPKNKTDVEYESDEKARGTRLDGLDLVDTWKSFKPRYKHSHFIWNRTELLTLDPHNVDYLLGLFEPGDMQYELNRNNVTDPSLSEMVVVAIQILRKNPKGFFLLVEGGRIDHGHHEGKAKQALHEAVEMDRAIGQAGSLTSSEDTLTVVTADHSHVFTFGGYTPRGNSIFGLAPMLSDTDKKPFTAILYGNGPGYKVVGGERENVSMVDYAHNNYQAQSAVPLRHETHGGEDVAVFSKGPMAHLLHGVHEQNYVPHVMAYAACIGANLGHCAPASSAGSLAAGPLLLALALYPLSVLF

[16] = Luminescence Cell-Based Dose Confirmation HTS to Identify Inhibitors of Polyadenylation.; assay type: functional
[17] = cytotoxicity in HEK-293T cells, dose response, cytotoxicity control for BCR NF-kB inhibitor project, luminescence, B-cell screen hits (AID 489021); assay type: functional, cell-based;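 further: HEK-293T cells carrying an NF-kB luciferase reporter; cells exposed to compound for about 14 hours before viability readout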
[18] = target: Sphingosine 1-phosphate receptor 4 (Homo sapiens, UniProt O95977); assay: Fluorescence dose response cell-based high throughput screening assay for antagonists of the Sphingosine 1-Phosphate Receptor 4 (S1P4). [Related pubchem assays: 1524 (Confirmation in triplicates.), 1510 (Primary screen.)]; assay type: functional
[19] = target: Disintegrin and metalloproteinase domain-containing protein 17 (Homo sapiens, UniProt P78536); assay: ADAM17 protease inhibitors, dose response, counter-screen for ADAM10 exosite inhibitor project, biochemical, quenched FRET substrate (AID 743253)
[20] = test system: Streptococcus sp. 'group A'; assay: growth inhibition of control SK(-) GAS strain, dose response, counter-screen for streptokinase expression inhibitor project, luminescence, kanamycin, BacTiterGlo, confirmation (AID 1900); assay type: functional, organism-based
Streptococcus = assay: Group A Streptococcus viability loss, dose response, counter-screen for streptokinase expression inhibitor project, luminescence, BacTiterGlo (AID 1915); assay type: functional, organism-based;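 further: potency for reduction of bacterial viability or growth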
Streptokinase A = target: T5, Streptokinase A (Streptococcus pyogenes serotype M1, UniProt P10520); assay: S. pyogenes streptokinase expression inhibitors, potency, dose response, plasminogen activation absorbance, OD405 (AID 1914); assay type: functional, Streptococcus pyogenes M1 GAS;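 further: secreted streptokinase activity via plasminogen activation per viability signal from cell pellet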
T5 sequence (P10520 whole entry): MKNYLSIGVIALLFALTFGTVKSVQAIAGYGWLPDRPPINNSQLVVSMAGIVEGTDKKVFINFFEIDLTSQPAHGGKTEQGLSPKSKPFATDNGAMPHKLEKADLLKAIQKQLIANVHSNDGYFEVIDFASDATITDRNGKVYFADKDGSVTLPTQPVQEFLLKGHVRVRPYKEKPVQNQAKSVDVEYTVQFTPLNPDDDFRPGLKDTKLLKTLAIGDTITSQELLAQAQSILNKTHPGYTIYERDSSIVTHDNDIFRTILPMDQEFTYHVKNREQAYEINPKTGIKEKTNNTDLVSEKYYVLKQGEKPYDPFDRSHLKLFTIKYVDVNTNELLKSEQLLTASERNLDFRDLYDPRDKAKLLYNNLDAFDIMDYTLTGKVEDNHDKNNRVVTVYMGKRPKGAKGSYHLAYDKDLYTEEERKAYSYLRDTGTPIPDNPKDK

X-box-binding protein 1 = X-box-binding protein 1 (Homo sapiens, UniProt P17861); assay type: functional, Cricetulus griseus;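 further: confirmatory dose-response counter-screen serving a CHOP assay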
[21] = Luminescence Cell-Based Dose Retest to Confirm Inhibitors of Cancer Stem Cells. [Related pubchem assays (depositor defined):AID2717, AID2721]; assay type: functional; conditions: Homo sapiens
[22] = growth suppression of beta-catenin-knockout colon cells, dose response, cell-based, HCT116, human colon tumor (AID 1045); assay type: functional;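 further: HCT116 colon tumor cells with beta catenin knocked out; cells exposed to compound for 60 hours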
[23] = growth suppression of PTEN-null colon cells, dose response, cell-based, HCT116 PTEN knockout (AID 1047); assay type: functional;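 further: HCT116 colon tumor cells with PTEN knocked out; cells exposed to compound for 60 hours before readout; potency for loss of cell viability measured by luminescence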
H9c2 = assay: cells; assay type: functional, cell-based; conditions: Rattus norvegicus, H9c2, Myocardium;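 further: confirmatory concentration-response retest of ultra-high-throughput screening hits for modulation of myocardial damage; cell death induced by hydrogen peroxide oxidative stress; compound pretreatment for 60 min then peroxide exposure for 2 h; potency is for protecting the cells against peroxide damage rather than for killing them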
Estrogen receptor beta = Estrogen receptor beta (Homo sapiens, UniProt Q92731);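 further: recombinant ER-beta bound to coactivator SRC1 peptide in presence of estradiol agonist; inhibitors block coactivator peptide binding and lower the FRET signal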
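Wherever AC50 is given: cells exposed to compound for roughly 70 hours or longer before luminescence read.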

Transitional endoplasmic reticulum ATPase (Homo sapiens, UniProt P55072, C522A), sequence (P55072 2-806 C522A limits assumed): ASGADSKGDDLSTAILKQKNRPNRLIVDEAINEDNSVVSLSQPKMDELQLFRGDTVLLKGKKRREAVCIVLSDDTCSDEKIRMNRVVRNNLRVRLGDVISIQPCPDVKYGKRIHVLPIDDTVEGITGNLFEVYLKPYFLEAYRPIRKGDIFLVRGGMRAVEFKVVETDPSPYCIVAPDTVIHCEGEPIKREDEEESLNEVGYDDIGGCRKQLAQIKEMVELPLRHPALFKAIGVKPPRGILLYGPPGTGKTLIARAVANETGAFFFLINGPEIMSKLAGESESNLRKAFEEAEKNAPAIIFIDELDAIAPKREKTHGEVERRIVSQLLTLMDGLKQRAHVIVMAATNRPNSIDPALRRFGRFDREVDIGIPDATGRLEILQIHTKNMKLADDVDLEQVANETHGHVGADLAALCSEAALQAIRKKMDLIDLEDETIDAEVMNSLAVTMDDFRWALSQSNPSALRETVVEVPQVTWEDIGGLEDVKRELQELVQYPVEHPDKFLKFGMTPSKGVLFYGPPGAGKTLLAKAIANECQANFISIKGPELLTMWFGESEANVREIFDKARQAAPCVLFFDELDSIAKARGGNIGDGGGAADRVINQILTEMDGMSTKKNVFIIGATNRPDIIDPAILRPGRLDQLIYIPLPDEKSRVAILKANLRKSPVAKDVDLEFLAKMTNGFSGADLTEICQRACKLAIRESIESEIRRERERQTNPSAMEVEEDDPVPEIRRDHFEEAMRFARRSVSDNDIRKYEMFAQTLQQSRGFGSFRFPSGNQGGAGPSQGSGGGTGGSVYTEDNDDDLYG
Peroxisome proliferator-activated receptor gamma/Nuclear receptor coactivator 2, sequence (P37231 whole entry): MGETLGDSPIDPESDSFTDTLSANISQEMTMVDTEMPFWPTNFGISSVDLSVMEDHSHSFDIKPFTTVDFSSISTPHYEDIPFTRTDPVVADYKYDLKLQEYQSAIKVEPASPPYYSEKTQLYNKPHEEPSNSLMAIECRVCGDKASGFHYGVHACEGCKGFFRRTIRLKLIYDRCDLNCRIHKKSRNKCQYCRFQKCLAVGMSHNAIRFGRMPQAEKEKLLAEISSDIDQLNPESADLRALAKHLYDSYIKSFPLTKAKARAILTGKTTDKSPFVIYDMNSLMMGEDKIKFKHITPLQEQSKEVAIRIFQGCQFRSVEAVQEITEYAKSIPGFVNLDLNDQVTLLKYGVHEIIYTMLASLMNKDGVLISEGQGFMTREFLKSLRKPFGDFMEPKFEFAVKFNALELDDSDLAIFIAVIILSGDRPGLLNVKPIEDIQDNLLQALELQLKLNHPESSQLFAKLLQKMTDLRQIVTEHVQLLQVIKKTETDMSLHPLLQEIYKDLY
Peroxisome proliferator-activated receptor gamma/Nuclear receptor coactivator 2, sequence (Q15596 whole entry, further chain): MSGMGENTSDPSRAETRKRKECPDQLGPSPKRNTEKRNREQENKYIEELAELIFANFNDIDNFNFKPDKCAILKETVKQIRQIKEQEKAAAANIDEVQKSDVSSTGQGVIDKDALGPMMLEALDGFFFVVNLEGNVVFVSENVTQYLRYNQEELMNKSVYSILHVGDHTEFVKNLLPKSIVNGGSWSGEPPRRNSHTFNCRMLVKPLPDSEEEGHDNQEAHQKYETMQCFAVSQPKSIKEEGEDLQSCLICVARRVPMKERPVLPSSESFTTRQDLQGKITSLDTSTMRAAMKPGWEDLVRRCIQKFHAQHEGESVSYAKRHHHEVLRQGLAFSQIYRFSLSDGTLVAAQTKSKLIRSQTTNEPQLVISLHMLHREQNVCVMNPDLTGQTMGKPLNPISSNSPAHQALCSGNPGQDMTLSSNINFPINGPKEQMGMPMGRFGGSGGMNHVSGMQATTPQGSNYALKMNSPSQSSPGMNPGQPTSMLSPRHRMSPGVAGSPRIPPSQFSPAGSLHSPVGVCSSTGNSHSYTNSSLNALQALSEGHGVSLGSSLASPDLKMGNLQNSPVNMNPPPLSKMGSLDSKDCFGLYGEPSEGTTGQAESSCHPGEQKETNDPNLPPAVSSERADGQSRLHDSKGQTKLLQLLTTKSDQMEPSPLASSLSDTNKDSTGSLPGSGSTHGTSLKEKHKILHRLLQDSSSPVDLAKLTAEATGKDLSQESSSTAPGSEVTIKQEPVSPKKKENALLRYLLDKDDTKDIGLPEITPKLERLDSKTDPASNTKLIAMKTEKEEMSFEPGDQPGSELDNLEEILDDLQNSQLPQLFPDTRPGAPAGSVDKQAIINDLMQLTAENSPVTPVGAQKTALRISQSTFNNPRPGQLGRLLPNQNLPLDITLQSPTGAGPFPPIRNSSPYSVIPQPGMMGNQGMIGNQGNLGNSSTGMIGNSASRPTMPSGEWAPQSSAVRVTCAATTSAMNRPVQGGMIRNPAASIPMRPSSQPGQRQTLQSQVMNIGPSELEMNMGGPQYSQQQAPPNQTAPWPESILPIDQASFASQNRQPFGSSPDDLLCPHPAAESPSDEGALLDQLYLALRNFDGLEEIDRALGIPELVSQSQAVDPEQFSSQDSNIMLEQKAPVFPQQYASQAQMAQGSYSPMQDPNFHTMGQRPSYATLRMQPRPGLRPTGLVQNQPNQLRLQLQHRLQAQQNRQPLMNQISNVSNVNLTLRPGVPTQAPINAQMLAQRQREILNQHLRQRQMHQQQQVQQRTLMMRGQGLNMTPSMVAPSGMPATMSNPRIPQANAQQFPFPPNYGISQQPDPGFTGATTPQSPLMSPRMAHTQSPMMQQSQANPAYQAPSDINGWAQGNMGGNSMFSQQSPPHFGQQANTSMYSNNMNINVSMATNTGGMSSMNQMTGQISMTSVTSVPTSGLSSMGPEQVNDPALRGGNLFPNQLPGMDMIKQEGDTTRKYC
Peroxisome proliferator-activated receptor gamma/Nuclear receptor coactivator 3, sequence (P37231 whole entry): as the sequence (P37231 whole entry) above
Peroxisome proliferator-activated receptor gamma/Nuclear receptor coactivator 3, sequence (Q9Y6Q9 whole entry, further chain): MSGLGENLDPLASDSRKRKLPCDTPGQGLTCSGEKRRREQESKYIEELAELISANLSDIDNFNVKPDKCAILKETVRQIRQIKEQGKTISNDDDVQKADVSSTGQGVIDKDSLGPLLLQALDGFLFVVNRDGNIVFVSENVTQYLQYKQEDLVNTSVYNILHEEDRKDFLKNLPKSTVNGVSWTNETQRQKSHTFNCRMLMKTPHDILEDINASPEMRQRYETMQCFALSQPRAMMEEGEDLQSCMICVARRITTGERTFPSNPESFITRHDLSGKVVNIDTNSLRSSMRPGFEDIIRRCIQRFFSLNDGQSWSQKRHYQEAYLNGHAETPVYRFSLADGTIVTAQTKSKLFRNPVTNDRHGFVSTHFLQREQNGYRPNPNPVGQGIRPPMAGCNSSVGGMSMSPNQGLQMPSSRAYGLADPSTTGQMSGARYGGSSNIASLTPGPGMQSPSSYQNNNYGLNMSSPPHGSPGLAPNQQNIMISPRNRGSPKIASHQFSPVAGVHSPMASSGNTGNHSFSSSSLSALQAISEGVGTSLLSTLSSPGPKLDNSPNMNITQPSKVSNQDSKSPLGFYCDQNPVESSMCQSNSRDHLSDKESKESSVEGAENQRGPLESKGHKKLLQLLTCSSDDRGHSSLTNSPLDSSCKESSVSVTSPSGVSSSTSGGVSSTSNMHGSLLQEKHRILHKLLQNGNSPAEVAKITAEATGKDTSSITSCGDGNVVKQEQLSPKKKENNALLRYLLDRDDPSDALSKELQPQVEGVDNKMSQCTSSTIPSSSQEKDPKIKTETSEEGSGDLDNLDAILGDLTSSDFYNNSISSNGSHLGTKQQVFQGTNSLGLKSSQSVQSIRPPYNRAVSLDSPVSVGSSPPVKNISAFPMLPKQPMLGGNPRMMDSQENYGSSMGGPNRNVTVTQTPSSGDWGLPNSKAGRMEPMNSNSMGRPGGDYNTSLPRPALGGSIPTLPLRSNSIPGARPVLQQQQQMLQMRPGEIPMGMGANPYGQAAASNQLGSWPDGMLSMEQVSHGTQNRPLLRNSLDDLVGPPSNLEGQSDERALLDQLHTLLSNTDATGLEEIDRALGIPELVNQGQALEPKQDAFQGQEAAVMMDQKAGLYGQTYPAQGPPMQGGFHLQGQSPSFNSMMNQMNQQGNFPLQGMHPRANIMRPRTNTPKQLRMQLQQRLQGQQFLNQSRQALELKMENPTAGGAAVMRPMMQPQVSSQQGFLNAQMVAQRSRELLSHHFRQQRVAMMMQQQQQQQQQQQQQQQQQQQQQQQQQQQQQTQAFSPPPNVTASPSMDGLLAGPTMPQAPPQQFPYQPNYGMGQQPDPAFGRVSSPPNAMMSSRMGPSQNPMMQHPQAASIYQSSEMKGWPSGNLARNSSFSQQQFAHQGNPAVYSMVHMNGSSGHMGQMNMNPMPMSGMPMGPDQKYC
T1 sequence (P65502 whole entry): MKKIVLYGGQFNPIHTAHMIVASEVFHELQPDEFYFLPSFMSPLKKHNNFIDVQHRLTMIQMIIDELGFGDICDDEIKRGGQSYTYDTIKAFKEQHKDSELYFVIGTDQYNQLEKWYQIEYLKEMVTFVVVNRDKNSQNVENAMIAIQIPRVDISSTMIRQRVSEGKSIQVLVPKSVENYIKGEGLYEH
Genome polyprotein, sequence (Q2Q167 whole entry): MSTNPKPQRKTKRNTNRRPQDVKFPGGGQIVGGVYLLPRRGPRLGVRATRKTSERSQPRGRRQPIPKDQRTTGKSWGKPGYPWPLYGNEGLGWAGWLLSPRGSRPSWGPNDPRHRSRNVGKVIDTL

CN(Cc1ccccc1)C(=S)NC(=O)c1ccc(-c2ccccc2)cc1
CC50 [1]: > 40 µM (active)

C#CCN(C)C(C)Cc1ccccc1 (centres undefined)
IC50 (14-3-3 protein gamma): > 50 µM (not active)

CN(C)C=O.O=C(Nc1cccc(S(=O)(=O)NC2=NCCCCC2)c1)c1cc(-c2ccco2)nc2ccccc12
IC50 [2]: 23.1 µM (active)
IC50 [3]: 6.77 µM (active)
IC50 [4]: 1.69 µM (active)
IC50 (Genome polyprotein): > 49.8 µM (not active)

Cc1cc(N2CCCCCC2)nc(-c2ccccc2O)n1
CC50 [1]: > 40 µM (active)

O=C(CCCSc1ccccc1)Nc1nc(-c2ccco2)c(-c2ccco2)s1
IC50 (NS3): 5.62 µM (active)

CC(C)c1nc2sc3c(S)ncnc3c2c2c1CCC2
IC50 [5]: > 50 µM (not active)
CC50 [6]: 14.3 µM (active)
IC50 [7]: 42.2 µM (not active)

Cc1ccc(CN2CCN(Cc3cccc(OCCO)c3)CC2CCO)o1 (centres undefined)
EC50 [8]: > 79.4 µM (not active)
EC50 [9]: > 79.4 µM (not active)
EC50 [10]: > 195 µM (not active)
EC50 [11]: > 79.4 µM (not active)

C=CCN1C=C/C(=C/c2ccc3cc(C)ccc3[n+]2CC)c2ccccc21
IC50 [12]: 32.9 µM (active)
CC50 (Vero): 4.96 µM (active)
IC50 (Nonstructural protein 1): 7.64 µM (active)

C=CCn1c(SCC(=O)NCCCC)nc2scc(-c3ccco3)c2c1=O
IC50 (NS3): 37.5 µM (not active)

O=C(Nc1ccncc1)Nc1cccc(Cl)c1Cl
EC50 [13]: > 60 µM (not active)
EC50 [14]: < 0.1 µM (active)
EC50 (cells): 0.209 µM (active)

Cc1cc(C)c(NC(=O)Cn2c(=O)n(-c3ccc(CC(=O)NCC4CCCO4)cc3)c(=O)c3ccccc32)c(C)c1 (centres undefined)
EC50 [15]: > 100 µM (not active)

COC(=O)C1=C(C)N(C)C(C)=C(C(=O)OC)C1c1ccc(C(=O)OC)cc1
IC50 (14-3-3 protein gamma): > 50 µM (not active)

CC(c1ccccc1)C(Cc1nc2ccccc2[nH]1)c1nc2ccccc2[nH]1 (centres undefined)
EC50 [15]: 61.3 µM (not active)

CCN(CC)C(=O)Oc1ccc2c(c1)O/C(=C\c1ccco1)C2=O
EC50 [16]: > 120 µM (not active)

CCc1ccc(/C=C2\SC(=S)N(CCC(=O)NC3=NCCS3)C2=O)cc1
IC50 [17]: > 80 µM (inactive)

CN[C@H]1C[C@H]2O[C@@](C)([C@H]1OC)n1c3ccccc3c3c4c(c5c6ccccc6n2c5c31)C(=O)NC4
IC50 [18]: 0.183 µM (active)

COc1ccc(CCN2C(=O)c3[nH]nc(-c4ccccc4O)c3C2c2cccc(Cl)c2)cc1 (centres undefined)
IC50 [19]: > 69.5 µM (inactive)
EC50 [20]: 5.5 µM (active)
EC50 (Streptococcus): 17.6 µM (active)
EC50 (Streptokinase A): 17.1 µM (active)
Absolute IC50 (XBP1) (X-box-binding protein 1): 10 µM

Cc1cc(C2(c3ccc(O)c(C)c3)C(=O)Nc3ccccc32)ccc1O
AC50 [21]: 5.36 µM (active)
EC50 [22]: 17 µM (active)
EC50 [23]: 17.4 µM (active)
Absolute IC50 (XBP1) (X-box-binding protein 1): 10 µM

O=C(Nc1ccc(F)cc1)C1C(c2ccccc2)C1(Cl)Cl (centres undefined)
IC50 [5]: > 50 µM (not active)
IC50 [7]: > 50 µM (not active)

CCOC(=O)c1s/c(=N\C(=O)c2cc(OC)c(OC)c(OC)c2)n(C)c1C
EC50 [8]: 30 µM (not active)
EC50 [9]: 42 µM (not active)
EC50 [11]: 49.7 µM (not active)

NC(=O)c1cccc2c1C(=O)N(C1CCCCC1)C2
IC50 (H9c2): > 79 µM (inactive)
IC50 (Estrogen receptor beta): 12.5 µM (active)

From ChEMBL document CHEMBL1201862, “PubChem BioAssay data set” (2004)
